Measurements from ChEMBL document CHEMBL3217750, “Small-molecule inhibitors of dimeric transcription factors: Antagonism of proteinprotein and proteinDNA interactions” (Medchemcomm, 2012).
pIC50: −log10 of the molar value. Bridge positions count the residues as written; N and C are the ends. Peptide text beside a SMILES is read from it.

What was measured:
[1] = target: T1, Lymphoid enhancer-binding factor 1 (Homo sapiens, UniProt Q9UJU2); assay: Inhibition of LEF-1 (unknown origin) expressed in CEF assessed as inhibition of beta catenin interaction by electrophoretic mobility shift assay
T1 sequence (Q9UJU2 whole entry): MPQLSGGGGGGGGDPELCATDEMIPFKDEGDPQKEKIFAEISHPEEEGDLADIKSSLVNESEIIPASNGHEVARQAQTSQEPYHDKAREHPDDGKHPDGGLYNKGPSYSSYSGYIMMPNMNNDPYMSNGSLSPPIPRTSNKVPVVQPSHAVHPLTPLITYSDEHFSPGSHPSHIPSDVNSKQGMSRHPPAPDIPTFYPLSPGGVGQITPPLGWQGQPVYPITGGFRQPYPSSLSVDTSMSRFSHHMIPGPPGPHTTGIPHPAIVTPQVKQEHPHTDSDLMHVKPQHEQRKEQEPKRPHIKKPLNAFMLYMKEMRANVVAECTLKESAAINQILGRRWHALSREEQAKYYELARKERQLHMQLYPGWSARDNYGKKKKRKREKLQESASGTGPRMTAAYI

[2] = target: T1, Lymphoid enhancer-binding factor 1; assay: Inhibition of LEF-1-mediated gene transcription in HEK293 cells after 48 hrs by luciferase reporter gene assay; assay type: cell-based
[3] = target: Transcription factor AP1 (Homo sapiens, UniProt P01100+P05412); assay: Inhibition of c-FOS/AP1 (unknown origin); assay type: protein-complex assay
Chain of Transcription factor AP1 (P05412 whole entry): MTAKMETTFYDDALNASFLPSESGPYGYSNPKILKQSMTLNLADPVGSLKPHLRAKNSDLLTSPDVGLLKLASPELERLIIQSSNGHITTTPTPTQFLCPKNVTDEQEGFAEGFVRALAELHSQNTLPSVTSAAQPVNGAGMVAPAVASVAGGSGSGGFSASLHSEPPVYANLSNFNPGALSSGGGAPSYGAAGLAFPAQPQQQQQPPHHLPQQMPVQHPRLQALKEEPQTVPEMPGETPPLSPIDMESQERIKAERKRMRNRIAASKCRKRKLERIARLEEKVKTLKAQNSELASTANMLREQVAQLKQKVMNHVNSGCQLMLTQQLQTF
Chain of Transcription factor AP1 (P01100 whole entry): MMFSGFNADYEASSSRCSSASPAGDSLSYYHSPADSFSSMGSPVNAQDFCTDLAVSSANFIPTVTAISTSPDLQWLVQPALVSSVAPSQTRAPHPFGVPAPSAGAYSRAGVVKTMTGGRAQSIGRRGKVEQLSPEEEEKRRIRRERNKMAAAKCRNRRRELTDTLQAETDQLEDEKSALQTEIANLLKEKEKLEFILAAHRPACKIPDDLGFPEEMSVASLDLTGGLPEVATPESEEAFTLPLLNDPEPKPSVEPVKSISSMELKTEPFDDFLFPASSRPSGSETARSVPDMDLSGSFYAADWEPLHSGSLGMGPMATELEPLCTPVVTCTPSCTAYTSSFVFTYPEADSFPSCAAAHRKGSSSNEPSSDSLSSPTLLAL

[4] = target: T2, Myc proto-oncogene protein (Homo sapiens, UniProt P01106); assay: Binding affinity to c-MYC (353 to 437) (unknown origin) by fluorescence polarization assay
T2 sequence (P01106 whole entry): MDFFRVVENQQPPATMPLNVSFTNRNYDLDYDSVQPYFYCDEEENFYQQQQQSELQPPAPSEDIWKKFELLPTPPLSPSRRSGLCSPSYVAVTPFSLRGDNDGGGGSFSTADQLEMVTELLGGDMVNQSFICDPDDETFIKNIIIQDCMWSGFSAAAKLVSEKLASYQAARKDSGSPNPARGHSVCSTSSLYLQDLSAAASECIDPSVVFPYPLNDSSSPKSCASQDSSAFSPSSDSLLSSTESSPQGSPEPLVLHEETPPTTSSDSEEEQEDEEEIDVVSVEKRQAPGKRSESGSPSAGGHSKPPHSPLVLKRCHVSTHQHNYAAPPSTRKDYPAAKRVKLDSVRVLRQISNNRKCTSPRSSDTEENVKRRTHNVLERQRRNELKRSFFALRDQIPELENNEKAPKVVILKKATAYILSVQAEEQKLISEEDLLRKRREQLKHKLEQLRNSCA

[5] = target: Transcription factor Jun (Homo sapiens, UniProt P05412); assay: Inhibition of AP-1 complex (unknown origin)
Chain of Transcription factor Jun (P05412 whole entry): as the sequence (P05412 whole entry) above

[6] = species: Homo sapiens; assay: Ratio of curcumin IC50 to compound IC50 for AP-1 complex (unknown origin)
[7] = species: Homo sapiens; assay: Selectivity ratio of IC50 for dimerized Max (unknown origin) to IC50 for c-Myc/Max (unknown origin)
[8] = target: Protein max (Homo sapiens, UniProt P61244); assay: Inhibition of dimerized Max (unknown origin) DNA-binding activity
Chain of Protein max (P61244 whole entry): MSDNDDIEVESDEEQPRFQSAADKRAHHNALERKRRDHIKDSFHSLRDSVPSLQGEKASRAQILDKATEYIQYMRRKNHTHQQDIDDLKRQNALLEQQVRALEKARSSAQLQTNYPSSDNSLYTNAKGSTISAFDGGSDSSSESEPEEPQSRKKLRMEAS

[9] = target: T3, c-Myc/Max (Homo sapiens, UniProt P01106+P61244); assay: Inhibition of c-Myc/Max (unknown origin) DNA-binding activity; assay type: protein-complex assay
T3 sequence (P01106 whole entry): as the sequence (P01106 whole entry) above
T3 sequence (P61244 whole entry): as the sequence (P61244 whole entry) above

[10] = target: T3, c-Myc/Max; assay: Inhibition of c-Myc/Max (unknown origin) DNA-binding activity preincubated for 1 hr followed by DNA addition measured after 15 mins by electrophoretic mobility shift assay; assay type: protein-complex assay
[11] = test system: HL-60; assay: Antiproliferative activity against human HL60 cells; assay type: functional, cell-based
[12] = target: T2, Myc proto-oncogene protein; assay: Inhibition of c-MYC in human HL60 cells by chemiluminescence assay; assay type: cell-based, HL-60
[13] = species: Homo sapiens; assay: Selectivity ratio of IC50 for c-Myc/Max (unknown origin) to IC50 for AP-1 complex (unknown origin)
[14] = target: T3, c-Myc/Max; assay: Inhibition of c-Myc/Max (unknown origin); assay type: protein-complex assay

COC(=O)c1cnc2ccc(NC(=O)c3ccc4c(c3)c3cc(NC(=O)c5cc6cc(NC(=O)CCCN(C)C)ccc6o5)ccc3n4C)cc2c1
pIC50 [1]: 3.94
pIC50 [2]: 6.82

CC(=O)N[C@H]1CSSC[C@@H](C(N)=O)NC(=O)CNC(=O)[C@H](CC(=O)O)NC(=O)[C@H](C)NC(=O)[C@H](CC(C)C)NC(=O)[C@H](CC(=O)O)NC(=O)[C@H](CC(C)C)NC(=O)[C@H](CCC(N)=O)NC(=O)CNC1=O (Ac-CGQLDLADGC-NH2; disulfide 1-10)
pIC50 [3]: 5.10

O=C(O)CCc1cc(C(=O)c2ccc(OC3CCCC3)cc2O)ccc1OCc1ccc2c(O)noc2c1
pIC50 [3]: 3.70

O=[N+]([O-])c1ccc(Nc2ccccc2-c2ccccc2)c2nonc12
Activity [4]: 2.8 µM

COc1cc(/C=C/C(=O)/C=C(O)/C=C/c2cc(OC)c(O)c([N+](=O)[O-])c2)cc([N+](=O)[O-])c1O
pIC50 [5]: 5.27
Ratio IC50 [6]: 90

CCOC(=O)c1cnn(-c2ccccc2)c1NC(=O)c1cc2nc(-c3ccco3)cc(C(F)(F)Cl)n2n1
Ratio IC50 [7]: > 2
pIC50 [8]: 4.06
pIC50 [9]: 4.40

CNC(=O)c1cc2c(cc1C(=O)NC[C@H](NS(=O)(=O)c1c(Cl)sc(Cl)c1Br)C(=O)OC(C)(C)C)CN(C(=O)CCC1CCN(C(=O)OC(C)(C)C)CC1)C2
pIC50 [10]: 4.30

CCc1ccc(/C=C2\SC(=S)NC2=O)cc1
pIC50 [11]: 4.31
Activity [4]: 5.3 µM

COC(=O)c1cc2cc(NC(=O)c3cc4cc(NC(=O)c5cc(NC(=O)OC(C)(C)C)cs5)ccc4[nH]3)ccc2[nH]1
pIC50 [1]: 4.51
pIC50 [2]: 5.21

COc1ccc(CNC(=O)c2cc3nc(-c4cccs4)cc(C(F)(F)F)n3n2)cc1
pIC50 [8]: 4.14
pIC50 [9]: 4.52

CC(C)c1ccc(/C=C2\SC(=S)N(CN3CCCCC3)C2=O)cc1
pIC50 [12]: 4.54

CC1(C)CC[C@]2(C(=O)O)CC[C@]3(C)C(=CC[C@@H]4[C@@]5(C)CC[C@H](O[C@@H]6O[C@H](C(=O)O)[C@@H](O)[C@H](O[C@@H]7OC[C@H](O)[C@H](O)[C@H]7O)[C@H]6O)C(C)(C)[C@@H]5CC[C@]43C)[C@@H]2C1
pIC50 [5]: 4.52
Ratio IC50 [13]: > 100
pIC50 [14]: 2.40
